Assay results from PubChem BioAssay (NCI).
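All cell lines were grown in 96-well plates and treated with compound for 48 hours. TGI: total growth inhibition.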

Assays:
Assay in all cases: NCI tumour cell line growth inhibition, 48 h
[1] = tested on: HCT-15 colon
[2] = tested on: HCC-2998 colon
[3] = tested on: SF-539 CNS
[4] = tested on: COLO 205 colon
[5] = tested on: U251 CNS
[6] = tested on: HT29 colon
[7] = tested on: NCI-H460 lung
[8] = tested on: OVCAR-4 ovarian
[9] = tested on: MALME-3M melanoma
[10] = tested on: RXF 393 renal
[11] = tested on: NCI-H23 lung
[12] = tested on: SNB-19 CNS
[13] = tested on: SNB-75 CNS
[14] = tested on: CCRF-CEM leukemia
[15] = tested on: SR leukemia
[16] = tested on: XF 498 CNS
[17] = tested on: DMS 273 small cell lung
[18] = tested on: M19-MEL melanoma
[19] = tested on: LXFL 529 NSCLC
[20] = tested on: ACHN renal
[21] = tested on: SK-MEL-5 melanoma
[22] = tested on: SK-OV-3 ovarian
[23] = tested on: TK-10 renal
[24] = tested on: K-562 leukemia
[25] = tested on: LOX IMVI melanoma
[26] = tested on: OVCAR-8 ovarian
[27] = tested on: DLD-1 colon
[28] = tested on: UACC-62 melanoma
[29] = tested on: A549 NSCLC
[30] = tested on: SF-295 CNS
[31] = tested on: OVCAR-3 ovarian
[32] = tested on: SK-MEL-2 melanoma
[33] = tested on: MOLT-4 leukemia
[34] = tested on: HL-60(TB) leukemia
[35] = tested on: UO-31 renal
[36] = tested on: HOP-18 NSCLC
[37] = tested on: DMS 114 small cell lung
[38] = tested on: SF-268 CNS
[39] = tested on: IGROV1 ovarian
[40] = tested on: M14 melanoma
[41] = tested on: OVCAR-5 ovarian
[42] = tested on: HOP-92 NSCLC
[43] = tested on: SN12C renal
[44] = tested on: SK-MEL-28 melanoma
[45] = tested on: EKVX NSCLC
[46] = tested on: HCT-116 colon
[47] = tested on: 786-0 renal
[48] = tested on: HOP-62 NSCLC
[49] = tested on: NCI-H226 lung
[50] = tested on: SW-620 colon
[51] = tested on: KM12 colon
[52] = tested on: RXF-631 renal
[53] = tested on: NCI-H522 lung
[54] = tested on: KM20L2 colon
[55] = tested on: RPMI-8226 leukemia
[56] = tested on: UACC-257 melanoma
[57] = tested on: CAKI-1 renal
[58] = tested on: A498 renal
[59] = tested on: SNB-78 CNS

O=C(NCc1ccc2ccc3cccnc3c2n1)c1ccc[n+](Cc2ccccc2)c1
TGI [1]: > 100 µM | TGI [2]: > 100 µM | TGI [3]: > 100 µM | TGI [4]: > 100 µM | TGI [5]: > 100 µM | TGI [6]: > 100 µM | TGI [7]: > 100 µM | TGI [8]: > 100 µM | TGI [9]: > 100 µM | TGI [10]: > 100 µM | TGI [11]: > 100 µM | TGI [12]: > 100 µM | TGI [13]: > 100 µM | TGI [14]: > 100 µM | TGI [15]: > 100 µM | TGI [16]: > 100 µM | TGI [17]: > 100 µM | TGI [18]: > 100 µM | TGI [19]: > 100 µM | TGI [20]: > 100 µM | TGI [21]: > 100 µM | TGI [22]: > 100 µM | TGI [23]: > 100 µM | TGI [24]: > 100 µM | TGI [25]: > 100 µM | TGI [26]: > 100 µM | TGI [27]: > 100 µM | TGI [28]: > 100 µM | TGI [29]: > 100 µM | TGI [30]: > 100 µM | TGI [31]: > 100 µM | TGI [32]: > 100 µM | TGI [33]: > 100 µM | TGI [34]: > 100 µM | TGI [35]: > 100 µM | TGI [36]: > 100 µM | TGI [37]: > 100 µM | TGI [38]: > 100 µM | TGI [39]: > 100 µM | TGI [40]: > 100 µM | TGI [41]: > 100 µM | TGI [42]: > 100 µM | TGI [43]: > 100 µM | TGI [44]: > 100 µM | TGI [45]: > 100 µM | TGI [46]: > 100 µM | TGI [47]: > 100 µM | TGI [48]: > 100 µM | TGI [49]: > 100 µM | TGI [50]: > 100 µM | TGI [51]: > 100 µM | TGI [52]: > 100 µM | TGI [53]: > 100 µM | TGI [54]: > 100 µM | TGI [55]: > 100 µM | TGI [56]: > 100 µM

CC(=O)NC1=C(N)C(=O)c2ccccc2C1=O
TGI [1]: > 100 µM | TGI [2]: > 100 µM | TGI [3]: > 100 µM | TGI [4]: 80.6 µM | TGI [5]: > 100 µM | TGI [6]: > 100 µM | TGI [7]: 40.6 µM | TGI [9]: 50.4 µM | TGI [10]: > 100 µM | TGI [11]: > 100 µM | TGI [12]: > 100 µM | TGI [13]: > 100 µM | TGI [14]: > 100 µM | TGI [16]: > 100 µM | TGI [17]: > 100 µM | TGI [18]: 41 µM | TGI [19]: > 100 µM | TGI [20]: > 100 µM | TGI [21]: > 100 µM | TGI [22]: > 100 µM | TGI [23]: > 100 µM | TGI [24]: > 100 µM | TGI [25]: 28.6 µM | TGI [26]: > 100 µM | TGI [27]: > 100 µM | TGI [57]: > 100 µM | TGI [28]: > 100 µM | TGI [29]: > 100 µM | TGI [30]: > 100 µM | TGI [31]: 61.9 µM | TGI [58]: > 100 µM | TGI [59]: > 100 µM | TGI [32]: > 100 µM | TGI [33]: > 100 µM | TGI [34]: > 100 µM | TGI [35]: > 100 µM | TGI [36]: > 100 µM | TGI [37]: 28.1 µM | TGI [38]: > 100 µM | TGI [39]: > 100 µM | TGI [40]: > 100 µM | TGI [41]: > 100 µM | TGI [42]: > 100 µM | TGI [43]: > 100 µM | TGI [45]: > 100 µM | TGI [46]: 35 µM | TGI [47]: > 100 µM | TGI [48]: > 100 µM | TGI [50]: 29.2 µM | TGI [51]: > 100 µM | TGI [52]: > 100 µM | TGI [53]: > 100 µM | TGI [54]: > 100 µM | TGI [55]: > 100 µM | TGI [56]: > 100 µM

COc1ccc2c(c1)[n+](=O)c(C(=O)CC(=O)C(=O)Nc1cccc(C)c1C)c(C)n2[O-]
TGI [1]: > 100 µM | TGI [2]: > 100 µM | TGI [3]: > 100 µM | TGI [5]: > 100 µM | TGI [6]: > 100 µM | TGI [7]: > 100 µM | TGI [8]: > 100 µM | TGI [9]: > 100 µM | TGI [10]: > 100 µM | TGI [11]: > 100 µM | TGI [12]: > 100 µM | TGI [14]: > 100 µM | TGI [15]: > 100 µM | TGI [16]: > 100 µM | TGI [18]: > 100 µM | TGI [19]: > 100 µM | TGI [20]: > 100 µM | TGI [21]: > 100 µM | TGI [22]: > 100 µM | TGI [23]: > 100 µM | TGI [24]: > 100 µM | TGI [25]: > 100 µM | TGI [26]: > 100 µM | TGI [27]: > 100 µM | TGI [57]: > 100 µM | TGI [28]: > 100 µM | TGI [29]: > 100 µM | TGI [30]: > 100 µM | TGI [31]: > 100 µM | TGI [59]: > 100 µM | TGI [32]: > 100 µM | TGI [33]: > 100 µM | TGI [34]: > 100 µM | TGI [35]: > 100 µM | TGI [36]: > 100 µM | TGI [37]: > 100 µM | TGI [38]: > 100 µM | TGI [39]: > 100 µM | TGI [40]: > 100 µM | TGI [41]: > 100 µM | TGI [42]: > 100 µM | TGI [43]: > 100 µM | TGI [44]: > 100 µM | TGI [45]: > 100 µM | TGI [46]: > 100 µM | TGI [47]: > 100 µM | TGI [48]: > 100 µM | TGI [49]: > 100 µM | TGI [50]: > 100 µM | TGI [51]: > 100 µM | TGI [52]: > 100 µM | TGI [53]: > 100 µM | TGI [54]: > 100 µM | TGI [55]: > 100 µM | TGI [56]: > 100 µM
